Reference: patent US20180332852A1, “Increased Almond Yields with Brassinosteroid Application” (Repar Corporation, priority 2017, published 2018)

Key:
[1] = test system: non Pareil almond tree; assay: Experiment 2: effects of HBR on nut size and fruit set in almond trees; assay type: in vivo, Prunus dulcis; details: 1 ppm HBR sprayed two weeks after full bloom; final fruit set at harvest
From the text: The effects of HBR on nut size and fruit set were studied in a population of 20 year old almond trees in Paine, Region 6 of Chile. The experimental design used a randomized block pattern with 10 replications of each experimental condition. Each experimental unit was a shoot of a non […] almond tree which was pollinated by bees in Solano and Carmel cultivars. Sufficient bee colonies were used for pollination of the orchard, including trees not receiving an experimental treatment. Flowers at full bloom were tallied and two weeks later the test branches were sprayed with either a control containing just water, a solution containing HBR at a rate of 1 ppm, a 10 ppm solution of HBR, or a solution of 10 ppm HBR and 10 ppm CPPU. Final fruit set on each test branch was taken at harvest. The percentage of fruit set was calculated by dividing the number of fruit per branch by the number of flowers counted before treatment and multiplying the result by 100.

[2] = test system: Branches of Carmel cultivars (almond); assay: Experiment 3: pollen germination, pollen tube length and fruit set after treatment during flowering; assay type: in vivo, Prunus dulcis; details: percent of flowers containing germinated pollen, versus control
Description: Branches of Carmel cultivars were selected from a mature almond orchard further comprising Solando and Non […] cultivars. During flowering, the selected branches received either a brassinosteroid treatment (BL, EBL, or HBR) (FIGS. 1, 2, and 3) or a gibberellic acid (FIG. 4) treatment. Four hours after treatment the percent of flowers which contained germinated pollen was determined. Twenty-four hours after treatment the length of each pollen tube was measured. Finally, fruit set was tabulated 50 days after fertilization. Results across the brassinosteroids were similar. […] Fruit set at 50 days after flowering was greater in the BR group than either GA3 or control.

[3] = diluted solution; pH should be no greater than 7.0, optimally between 4.0 and 5.0; cited from earlier work

SMILES: CC[C@@H](C(C)C)C(O)C(O)[C@@H](C)[C@H]1CC[C@H]2[C@@H]3COC(=O)[C@H]4C[C@H](O)[C@H](O)C[C@]4(C)[C@H]3CC[C@]12C (stereo in doubt) [HBR, homobrassinolide]
- increase of fruit set over control [1]: 21.1%
- pollen germination after four hours [2]: most effective treatment
- stability at alkaline pH levels [3]: not stable
